Measurements from patent US20080312261A1, “4- (4-Bromo-2-Fluoroanilino) -6- Methoxy-7- (1-Methylpiperidin-4-Ylmethoxy) Quinazoline Monohydrate” (priority 2005, published 2008).
pIC50: −log10 of the molar value. Like-named read-outs stand apart in the source and are kept apart here.

What was measured:
[1] = Dynamic Vapour Sorption (DVS) analysis; type: physicochemical; conditions: for kinetic stability: on the DVS timescale
Description: Analytical Instrument: Surface Measurements Systems Dynamic Vapour Sorption Analyser, calibrated with a saturated salt solution, such as sodium chloride.
About 5 mg of material contained in a quartz holder at a specified temperature was subjected to humidified nitrogen at a flow rate of 200 ml/minute of nitrogen at the following relative humidities (RH): 0, 20, 40, 60, 80, 95, 80, 60, 40, 20, 0% RH in duplicate.
The weight of the material at a particular relative humidity was constantly monitored using an in-situ balance until it was stable according to a weight criteria of 0.002% weight change per minute averaged over 10 minutes. If the weight was still changing then it stayed at a particular relative humidity until the weight was stable (up to a maximum time of 12 hours).

[2] = system: CaLu-6 tumour xenografts; conditions: 50 mg/kg, orally once daily; CaLu-6 xenografts in mice; p<0.001 (Mann-Whitney Rank Sum Test); cited from earlier work
[3] = system: human umbilical vein endothelial cells (HUVEC); conditions: as disclosed in WO 01/32651, cited from earlier work
[4] = system: femoral epiphyseal growth plates; conditions: 100 mg/kg/day in female rats, 14 days oral; p<0.001 (one-tailed Students' t-test); cited from earlier work

| hygroscopicity by DVS ([1]; 25° C.) | water absorbed ([1]; at 95% relative humidity, 25° C.) [% weight/weight] | kinetic stability [1] | rate of weight loss on storage ([1]; 0% relative humidity at 25° C., once surface moisture has been removed) | rate of weight loss on storage ([1]; 0% relative humidity at 40° C.) | conversion to the anhydrous form of ZD6474 during drying ([1]; 25° C. and 0% relative humidity) | Structure (SMILES) | inhibition of tumour growth [2] [%] | pIC50 ([3]; EGF-stimulated HUVEC proliferation, read-out: EGF IC50) | pIC50 ([3]; VEGF-stimulated HUVEC proliferation, read-out: VEGF IC50) | pIC50 ([3]; basal HUVEC proliferation, read-out: Basal IC50) | increase in epiphyseal growth plate hypertrophy [4] [%] |
| --- | --- | --- | --- | --- | --- | --- | --- | --- | --- | --- | --- |
| non-hygroscopic | 0.63 | kinetically stable | – | – | – | COc1cc2c(Nc3ccc(Br)cc3F)ncnc2cc1OCC1CCN(C)CC1 [ZD6474 anhydrous, 4-(4-bromo-2-fluoroanilino)-6-methoxy-7-(1-methylpiperidin-4-ylmethoxy)quinazoline] | – | – | – | – | – |
| non-hygroscopic | – | kinetically stable | extremely slow | surprisingly slow | less than 5% | COc1cc2c(Nc3ccc(Br)cc3F)ncnc2cc1OCC1CCN(C)CC1 [ZD6474 monohydrate, 4-(4-bromo-2-fluoroanilino)-6-methoxy-7-(1-methylpiperidin-4-ylmethoxy)quinazoline] | – | – | – | – | – |
| – | – | – | – | – | – | COc1cc2c(Nc3ccc(Br)cc3F)ncnc2cc1OCC1CCN(C)CC1 [ZD6474, 4-(4-bromo-2-fluoroanilino)-6-methoxy-7-(1-methylpiperidin-4-ylmethoxy)quinazoline] | 78 | 6.77 | 7.22 | < 5.52 | 75 |
